The values that follow come from patent US10206906B2, “Synergistic combination of a phenolic-rich maple syrup extract and an antibiotic” (priority 2015, dated 2019).

The test system of assay [1] is P. aeruginosa PA14. Briefly: Determination of minimum inhibitory concentration (MIC). Format: cell-based. The note with it: Pseudomonas aeruginosa, read-out: MIC. Here is the method: (§1) A range of concentration of antibiotics, ciprofloxacin (0.0003-0.25 μg mL^−1) and carbenicillin (0.5-512 μg mL^−1), are chosen due to their known potency against all four bacterial strains. Dilutions are prepared in flat bottom, 96 well microtitre plates (Falcon™, Corning™, Fisher Scientific, ON, Canada). Each well of a microtitre plate is then inoculated with the desired bacterial strain (grown in MHB-II and diluted to […]) and the plate is incubated at 37° C. for 18 h under static conditions. Bacterial growth is assessed by (i) monitoring the optical density of the cell suspension in each well at 600 nm (OD600 nm), and (ii) the resazurin microtitre plate assay. In the resazurin microtitre plate assay, each well of a microtitre plate is supplemented with 20 μM resazurin, incubated in the dark for 20 min at room temperature, followed by fluorescence measurements at ex/em 570/590 nm using a TECAN Infinite M200 Pro microplate reader (Tecan Group Ltd., Switzerland). The lowest concentration of a compound able to prevent increase in OD600 nm and resazurin fluorescence intensity is recorded as the MIC for that compound.

The test system of assay [2] is P. aeruginosa PAO1. The description is as above. Format: cell-based. The settings on record: Pseudomonas aeruginosa, read-out: MIC. The protocol: as §1
The test system of assay [3] is P. aeruginosa PA14. As to the kind of experiment: Checkerboard microdilution assay (growth inhibition synergy). Format: cell-based, Pseudomonas aeruginosa. The note with it: for FIC of ciprofloxacin: ciprofloxacin in combination with the labelled phenolic constituent; for FICI: labelled phenolic constituent + ciprofloxacin, * = synergistic interaction; for FIC of compound: labelled phenolic constituent in combination with ciprofloxacin. The protocol: (§2) The checkerboard microdilution assay is used for evaluation of in vitro antimicrobial synergy between two compounds (i.e., antibiotic/PRMSE, antibiotic/pure phenolic compound, and pure phenolic compounds with each other). Two-fold serial dilutions are prepared in MHB-II for each of the two compounds under study. The serial dilutions are then loaded into 96 well plates to achieve combinations having different concentrations of each of the two compounds. Each well is subsequently inoculated with 10^6 CFU mL^−1 of the desired bacterial strain and incubated at 37° C. for 18 h under static conditions. The Fractional Inhibitory Concentration Index (FICI) for each combination is calculated by using the following formula: FICcomponent 1=MICcomponent 1, in combination/MICcomponent 1,alone FICI=FICcomponent 1+FICcomponent 2
(§3) The FICIs are interpreted as follows: FICI of […] (synergy); 0.5<FICI ≤1 (no interaction/indifference); FICI of >4 (antagonism).
On the technique in general: Dilution methods test growth across graded concentrations, often in twofold steps.

The subject of assay [4] is P. aeruginosa PAO1. Described as above. Format: cell-based, Pseudomonas aeruginosa. The settings on record: for FIC of ciprofloxacin: ciprofloxacin in combination with the labelled phenolic constituent; for FICI: labelled phenolic constituent + ciprofloxacin, * = synergistic interaction; for FIC of compound: labelled phenolic constituent in combination with ciprofloxacin. The protocol:
as §2, §3

The test system of assay [5] is E. coli CFT073. Briefly: Determination of minimum inhibitory concentration (MIC). The settings on record: Escherichia coli, CFT073, 18 h; read-out: MIC. Format: cell-based. Here is the method: as §1
In assay [6] the test system is P. mirabilis HI4320. Described as above. Format: cell-based. The settings on record: Proteus mirabilis, HI4320, 18 h; read-out: MIC. Here is the method:
as §1

Assay [7] relates to E. coli CFT073. Briefly: Checkerboard microdilution assay (growth inhibition synergy). Format: cell-based, Escherichia coli. The settings on record: for FIC of ciprofloxacin: ciprofloxacin in combination with the labelled phenolic constituent; for FICI: labelled phenolic constituent + ciprofloxacin, * = synergistic interaction; for FIC of compound: labelled phenolic constituent in combination with ciprofloxacin. The protocol: as §2, §3

The subject of assay [8] is P. mirabilis HI4320. The assay is described as above. Format: cell-based, Proteus mirabilis. The note with it: for FIC of ciprofloxacin: ciprofloxacin in combination with the labelled phenolic constituent; for FICI: labelled phenolic constituent + ciprofloxacin, * = synergistic interaction; for FIC of compound: labelled phenolic constituent in combination with ciprofloxacin. The protocol: as §2, §3

[9] abbreviates: carbenicillin/PRMSE combination, FIC of the labelled component.
[10] abbreviates: labelled constituent + catechol, * = synergistic.
[11] abbreviates: labelled constituent + gallic acid, * = synergistic.
Where [12] appears, read: labelled constituent combined with catechol.
Where [13] appears, read: labelled constituent combined with gallic acid.

Converted amounts (≈) assume the structure as drawn. Where two headings read alike, the source gives them in different places.

The term MIC denotes the lowest concentration that inhibits growth of the organism. In the case of `CC1(C)S[C@@H]2[C@H](NC(=O)C(C(=O)O)c3ccccc3)C(=O)N2[C@H]1C(=O)O` (stereo partly shown) [carbenicillin, reference compound], the MIC in the assay on P. aeruginosa PA14 [1] (PA14, antibiotic alone, MHB-II, 37° C., 18 h) is 128 µg/mL (≈ 0.338 mM); in the assay on P. aeruginosa PAO1 [2] (PAO1, antibiotic alone, MHB-II, 37° C., 18 h), 64 µg/mL (≈ 0.169 mM). Also, the FIC in the assay on P. aeruginosa PA14 [3] (setting [9]) is 0.063; with P. aeruginosa PAO1 [4] (setting [9]), 0.13.

As to `O=Cc1ccc(O)c(O)c1` [catechaldehyde, 3,4-dihydroxybenzaldehyde], the MIC came out at 1250 µg/mL (≈ 9.05 mM) in the assay with E. coli CFT073 [5]; 1250 µg/mL (≈ 9.05 mM) in the assay on P. aeruginosa PA14 [1] (PA14, 18 h); 1250 µg/mL (≈ 9.05 mM) in the assay on P. aeruginosa PAO1 [2] (PAO1, 18 h); 1250 µg/mL (≈ 9.05 mM) in the assay with P. mirabilis HI4320 [6]. In addition, the FIC of ciprofloxacin is on record as 1 with E. coli CFT073 [7], 0.5 with P. mirabilis HI4320 [8], 1 in the assay with P. aeruginosa PA14 [3] and 0.5 in the assay with P. aeruginosa PAO1 [4]. Besides, the “FICI, catechol” value in the assay with E. coli CFT073 [7] (setting [10]) is listed as 0.5*; in the assay on P. mirabilis HI4320 [8] (setting [10]), 0.5*; in the assay on P. aeruginosa PA14 [3] (setting [10]), 0.5*; in the assay on P. aeruginosa PAO1 [4] (setting [10]) it was 0.37*. Further, the “FICI, gallic acid” value is 0.5* in the assay on E. coli CFT073 [7] (setting [11]), 0.37* in the assay on P. mirabilis HI4320 [8] (setting [11]), 0.5* with P. aeruginosa PA14 [3] (setting [11]) and 0.37* with P. aeruginosa PAO1 [4] (setting [11]). Also, the “FIC, catechol” value with E. coli CFT073 [7] (setting [12]), in the assay with P. mirabilis HI4320 [8] (setting [12]), with P. aeruginosa PA14 [3] (setting [12]) and with P. aeruginosa PAO1 [4] (setting [12]) was 0.25 each time. In addition, the “FIC, gallic acid” value came out at 0.25 with E. coli CFT073 [7] (setting [13]), 0.13 with P. mirabilis HI4320 [8] (setting [13]), 0.25 with P. aeruginosa PA14 [3] (setting [13]) and 0.13 in the assay on P. aeruginosa PAO1 [4] (setting [13]). Further, the FICI is recorded as 2 in the assay on E. coli CFT073 [7], 1.5 with P. mirabilis HI4320 [8], 2 with P. aeruginosa PA14 [3] and 1.01 in the assay on P. aeruginosa PAO1 [4]. For the same molecule, the FIC of compound turned out to be 1 in the assay on E. coli CFT073 [7], 1 in the assay with P. mirabilis HI4320 [8], 1 in the assay with P. aeruginosa PA14 [3] and 0.51 in the assay on P. aeruginosa PAO1 [4].

Turning to `O=C(O)c1cc(O)c(O)c(O)c1` [gallic acid], the MIC in the assay with E. coli CFT073 [5] was determined as 5000 µg/mL (≈ 29.4 mM); in the assay with P. aeruginosa PA14 [1] (PA14, 18 h), 5000 µg/mL (≈ 29.4 mM); with P. aeruginosa PAO1 [2] (PAO1, 18 h), 5000 µg/mL (≈ 29.4 mM); in the assay on P. mirabilis HI4320 [6] it was 5000 µg/mL (≈ 29.4 mM). Moreover, the FIC of ciprofloxacin in the assay on E. coli CFT073 [7], with P. mirabilis HI4320 [8], in the assay on P. aeruginosa PA14 [3] and with P. aeruginosa PAO1 [4] was 1 throughout. The FICI in the assay on E. coli CFT073 [7], with P. mirabilis HI4320 [8], with P. aeruginosa PA14 [3] and in the assay with P. aeruginosa PAO1 [4] was 2 in each case. Moreover, the FIC of compound in the assay on E. coli CFT073 [7], in the assay with P. mirabilis HI4320 [8], in the assay on P. aeruginosa PA14 [3] and in the assay with P. aeruginosa PAO1 [4] was 1 in each case.
